One test deals with T1, Human δ-opioid (DOP) (Homo sapiens, UniProt P41143).
T1 construct: purchased Perkin Elmer Biosignal
Nature of the test: Radioligand binding, human δ-opioid (DOP) membranes, FlashPlate, [3H]-Bremazocine. Conditions: compound at 10 μM; [3H]-Bremazocine. The essentials:
(§1)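 Cloned human receptor membranes were coated onto FlashPlate wells and incubated with radioligand and compound (added from a 0.5 mM DMSO daughter plate) for 1 hour at room temperature in the dark. Scintillation counting gave percent inhibition, with DMSO defining total and reference ligand defining non-specific binding.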

In a further test the target is T2, Human κ-Opioid (KOP) (Homo sapiens, UniProt P41145).
T2 construct: purchased Perkin Elmer Biosignal
Nature of the test: Radioligand binding, human κ-opioid (KOP) membranes, filtration, [3H]-Diprenorphine. Conditions: compound at 10 μM; [3H]-Diprenorphine. An outline of the steps:
(§2)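 Membranes from cloned human receptors were incubated with compound and radioligand for 1 hour at room temperature. Bound ligand was collected on 0.3% PEI-soaked filters, washed with cold 50 mM Tris-HCl pH 7.4, and counted by scintillation. Percent inhibition was computed against DMSO totals and reference-ligand nonspecific wells.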

For a further test, the target named is T3, Human Melanocortin (MC3) (Homo sapiens, UniProt P41968).
T3 construct: purchased Perkin Elmer Biosignal
Nature of the test: Radioligand binding, human melanocortin MC3 membranes, FlashPlate, [125I]-NDP-αMSH. The following applies: compound at 10 μM; [125I]-NDP-αMSH. An outline of the steps:
as §1

Another test addresses T4, Human Melanocortin (MC4) (Homo sapiens, UniProt P32245).
T4 construct: purchased Perkin Elmer Biosignal
Nature of the test: Radioligand binding, human melanocortin MC4 membranes, FlashPlate, [125I]-NDP-αMSH. Conditions: compound at 10 μM; [125I]-NDP-αMSH. An outline of the steps: as §1

For another test, the target named is T5, Human melanocortin (MC5) (Homo sapiens, UniProt P33032).
T5 construct: purchased Perkin Elmer Biosignal
Nature of the test: Radioligand binding, human melanocortin MC5 membranes, FlashPlate, [125I]-NDP-αMSH. Conditions: compound at 10 μM; [125I]-NDP-αMSH. The essentials: as §1

Test [1] addresses T6, Human melanin-concentrating hormone (MCH1) (Homo sapiens, UniProt Q99705).
T6 construct: purchased Perkin Elmer Biosignal
Nature of the test: Radioligand binding, human melanin-concentrating hormone MCH1 membranes, FlashPlate, [125I]-S36057. Conditions: compound at 10 μM; [125I]-S36057. An outline of the steps:
as §1

Another test addresses T7, Human μ-opioid (MOP) (Homo sapiens, UniProt P35372).
T7 construct: purchased Perkin Elmer Biosignal
Nature of the test: Radioligand binding, human μ-opioid (MOP) membranes, FlashPlate, [3H]-Naloxone. The following applies: compound at 10 μM; [3H]-Naloxone. The essentials:
as §1

The next test addresses T8, Human neurokinin (NK1) (Homo sapiens, UniProt P25103).
T8 construct: purchased Perkin Elmer Biosignal
Nature of the test: Radioligand binding, human neurokinin NK1 membranes, filtration, [125I]-Substance P. Conditions: compound at 10 μM; [125I]-Substance P. An outline of the steps: as §2

In test [2] the target is T9, Human neuropeptide Y (NPY-Y1) (Homo sapiens, UniProt P25929).
T9 construct: purchased Perkin Elmer Biosignal
T9 sequence (P25929 1-384): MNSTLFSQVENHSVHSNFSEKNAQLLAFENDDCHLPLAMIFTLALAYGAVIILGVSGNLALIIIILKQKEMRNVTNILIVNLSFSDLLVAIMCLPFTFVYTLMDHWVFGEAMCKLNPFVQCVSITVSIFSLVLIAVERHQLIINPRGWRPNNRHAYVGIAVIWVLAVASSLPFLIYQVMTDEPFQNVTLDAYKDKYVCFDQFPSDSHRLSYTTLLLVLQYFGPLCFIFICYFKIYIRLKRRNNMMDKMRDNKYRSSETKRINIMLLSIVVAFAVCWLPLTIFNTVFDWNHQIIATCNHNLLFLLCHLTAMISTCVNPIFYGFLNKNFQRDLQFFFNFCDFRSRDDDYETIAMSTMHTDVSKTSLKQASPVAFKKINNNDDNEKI
Nature of the test: Radioligand binding, human neuropeptide Y NPY-Y1 membranes, FlashPlate, [125I]-PYY. The following applies: compound at 10 μM; [125I]-PYY. The essentials: as §1

In the next test the target is T10, Human opioid (ORL1) (Homo sapiens, UniProt P41146).
T10 construct: purchased Perkin Elmer Biosignal
Nature of the test: Radioligand binding, human opioid ORL1 membranes, FlashPlate, [125I]-Nociceptin. The following applies: compound at 10 μM; [125I]-Nociceptin. An outline of the steps: as §1

The target of another test is T11, Mouse urotensin (mUR2) (Mus musculus, UniProt Q8VIH9).
T11 construct: purchased Perkin Elmer Biosignal
T11 sequence (Q8VIH9 1-385): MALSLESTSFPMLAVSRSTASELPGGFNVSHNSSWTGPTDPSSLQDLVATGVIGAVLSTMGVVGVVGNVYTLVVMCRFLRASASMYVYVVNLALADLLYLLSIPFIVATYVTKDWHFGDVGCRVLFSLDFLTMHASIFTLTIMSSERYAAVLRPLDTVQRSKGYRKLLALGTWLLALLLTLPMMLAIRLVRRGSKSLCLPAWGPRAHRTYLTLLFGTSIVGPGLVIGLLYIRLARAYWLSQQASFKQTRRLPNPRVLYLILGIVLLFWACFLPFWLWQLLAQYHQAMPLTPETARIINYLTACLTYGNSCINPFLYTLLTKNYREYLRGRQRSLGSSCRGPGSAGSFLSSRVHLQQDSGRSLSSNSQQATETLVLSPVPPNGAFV
Nature of the test: Radioligand binding, mouse urotensin mUR2 membranes, FlashPlate, [125I]-Urotensin II. Conditions: compound at 10 μM; [125I]-Urotensin II. The essentials: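 Cloned mouse urotensin (mUR2) receptor membranes from Perkin Elmer Biosignal were immobilized in FlashPlate microplates using a proprietary coating. Each well got 19.5 μl buffer, then 0.5 μl of DMSO, reference ligand, or compound. Adding 5 μl of [125I]-Urotensin II, diluted to 5× final concentration in binding buffer, started binding. Plates were sealed with TopSeal-A and incubated 1 hour at room temperature in the dark. Wells were counted for 30 seconds each on a TopCount after a 60-second delay, and percentage inhibition was calculated.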

We go through three compounds from patent US20080009418A1, “Selective Inhibitors” (Alchemia LTD., priority 2004, published 2008).

T10 sequence (P41146 whole entry): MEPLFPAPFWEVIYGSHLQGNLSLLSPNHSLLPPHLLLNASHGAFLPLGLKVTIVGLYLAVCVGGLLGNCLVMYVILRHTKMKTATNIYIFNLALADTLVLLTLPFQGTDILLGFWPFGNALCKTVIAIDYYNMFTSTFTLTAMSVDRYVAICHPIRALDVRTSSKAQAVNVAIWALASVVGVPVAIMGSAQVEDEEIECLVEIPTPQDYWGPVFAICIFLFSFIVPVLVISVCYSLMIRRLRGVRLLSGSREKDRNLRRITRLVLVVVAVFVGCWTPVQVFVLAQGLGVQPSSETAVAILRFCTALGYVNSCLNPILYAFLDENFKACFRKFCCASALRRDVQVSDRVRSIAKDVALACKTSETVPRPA
T8 sequence (P25103 whole entry): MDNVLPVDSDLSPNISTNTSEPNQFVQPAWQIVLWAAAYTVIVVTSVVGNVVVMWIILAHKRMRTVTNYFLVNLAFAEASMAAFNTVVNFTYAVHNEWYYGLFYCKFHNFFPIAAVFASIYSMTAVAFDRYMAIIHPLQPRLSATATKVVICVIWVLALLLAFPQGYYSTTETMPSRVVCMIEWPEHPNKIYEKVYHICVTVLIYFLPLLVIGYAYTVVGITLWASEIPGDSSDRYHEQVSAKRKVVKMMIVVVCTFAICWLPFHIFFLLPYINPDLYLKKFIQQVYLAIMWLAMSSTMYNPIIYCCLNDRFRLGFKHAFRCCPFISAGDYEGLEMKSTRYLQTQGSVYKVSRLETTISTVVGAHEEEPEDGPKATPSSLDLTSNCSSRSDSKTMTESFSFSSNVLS
T7 sequence (P35372 whole entry): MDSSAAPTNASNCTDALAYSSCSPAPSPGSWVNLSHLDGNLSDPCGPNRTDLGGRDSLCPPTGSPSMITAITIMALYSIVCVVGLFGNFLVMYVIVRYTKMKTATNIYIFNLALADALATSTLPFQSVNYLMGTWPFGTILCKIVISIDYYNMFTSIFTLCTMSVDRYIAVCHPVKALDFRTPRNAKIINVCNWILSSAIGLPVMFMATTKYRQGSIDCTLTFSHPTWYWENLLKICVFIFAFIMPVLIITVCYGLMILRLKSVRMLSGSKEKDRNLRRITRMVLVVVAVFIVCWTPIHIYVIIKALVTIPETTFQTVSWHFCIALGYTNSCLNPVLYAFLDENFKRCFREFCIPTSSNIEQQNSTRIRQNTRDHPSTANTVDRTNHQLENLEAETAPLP
T4 sequence (P32245 whole entry): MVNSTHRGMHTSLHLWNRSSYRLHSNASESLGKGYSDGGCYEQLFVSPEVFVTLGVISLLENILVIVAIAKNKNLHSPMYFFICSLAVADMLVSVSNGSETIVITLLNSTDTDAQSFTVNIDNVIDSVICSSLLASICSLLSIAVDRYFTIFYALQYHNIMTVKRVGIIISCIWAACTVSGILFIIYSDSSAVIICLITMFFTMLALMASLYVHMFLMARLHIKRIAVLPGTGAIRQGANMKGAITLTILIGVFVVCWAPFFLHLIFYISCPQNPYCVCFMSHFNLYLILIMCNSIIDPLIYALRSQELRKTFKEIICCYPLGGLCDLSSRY
T6 sequence (Q99705 whole entry): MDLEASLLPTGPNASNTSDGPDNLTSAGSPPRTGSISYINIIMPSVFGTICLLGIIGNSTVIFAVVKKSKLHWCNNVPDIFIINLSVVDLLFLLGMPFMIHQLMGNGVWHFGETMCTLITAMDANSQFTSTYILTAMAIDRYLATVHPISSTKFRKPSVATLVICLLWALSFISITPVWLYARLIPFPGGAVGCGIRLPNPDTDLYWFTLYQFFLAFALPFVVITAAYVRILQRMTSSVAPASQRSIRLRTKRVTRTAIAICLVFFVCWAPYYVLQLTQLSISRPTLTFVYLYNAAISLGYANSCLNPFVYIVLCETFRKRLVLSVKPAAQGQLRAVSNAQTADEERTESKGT
T2 sequence (P41145 whole entry): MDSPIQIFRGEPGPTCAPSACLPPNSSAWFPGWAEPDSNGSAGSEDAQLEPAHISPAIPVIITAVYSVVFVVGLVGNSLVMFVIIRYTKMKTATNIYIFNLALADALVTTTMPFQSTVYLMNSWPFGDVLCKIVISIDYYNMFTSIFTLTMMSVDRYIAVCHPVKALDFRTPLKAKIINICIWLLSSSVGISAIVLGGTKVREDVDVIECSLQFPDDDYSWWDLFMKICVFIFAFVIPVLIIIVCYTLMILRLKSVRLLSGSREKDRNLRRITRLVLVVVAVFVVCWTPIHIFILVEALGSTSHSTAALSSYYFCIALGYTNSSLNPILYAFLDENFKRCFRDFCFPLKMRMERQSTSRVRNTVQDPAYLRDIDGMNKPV
T3 sequence (P41968 whole entry): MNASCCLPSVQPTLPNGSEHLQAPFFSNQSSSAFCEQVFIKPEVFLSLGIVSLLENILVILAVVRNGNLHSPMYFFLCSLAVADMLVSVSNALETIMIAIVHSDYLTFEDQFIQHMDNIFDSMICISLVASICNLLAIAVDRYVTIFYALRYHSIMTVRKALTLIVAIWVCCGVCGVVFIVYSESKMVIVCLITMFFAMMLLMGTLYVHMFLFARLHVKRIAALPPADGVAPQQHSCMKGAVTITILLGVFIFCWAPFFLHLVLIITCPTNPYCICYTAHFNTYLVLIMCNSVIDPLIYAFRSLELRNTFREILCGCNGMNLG
T5 sequence (P33032 whole entry): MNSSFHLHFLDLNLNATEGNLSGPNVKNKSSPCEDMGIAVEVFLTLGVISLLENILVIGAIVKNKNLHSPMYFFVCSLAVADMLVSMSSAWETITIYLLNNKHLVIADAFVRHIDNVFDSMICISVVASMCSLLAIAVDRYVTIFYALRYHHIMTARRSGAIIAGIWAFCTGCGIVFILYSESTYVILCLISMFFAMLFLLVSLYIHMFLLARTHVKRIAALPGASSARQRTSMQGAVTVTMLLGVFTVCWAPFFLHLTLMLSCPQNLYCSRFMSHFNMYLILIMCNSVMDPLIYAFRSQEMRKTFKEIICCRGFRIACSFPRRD
T1 sequence (P41143 whole entry): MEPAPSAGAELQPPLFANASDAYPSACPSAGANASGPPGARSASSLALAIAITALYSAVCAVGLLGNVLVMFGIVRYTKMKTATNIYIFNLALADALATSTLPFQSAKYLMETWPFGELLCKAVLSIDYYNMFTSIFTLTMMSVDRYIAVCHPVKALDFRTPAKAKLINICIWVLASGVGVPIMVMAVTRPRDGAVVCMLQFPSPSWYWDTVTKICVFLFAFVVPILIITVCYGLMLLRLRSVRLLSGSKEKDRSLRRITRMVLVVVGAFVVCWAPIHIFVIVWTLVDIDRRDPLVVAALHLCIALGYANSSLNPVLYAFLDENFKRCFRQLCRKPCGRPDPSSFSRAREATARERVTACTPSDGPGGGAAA

In the case of `CSC1OC(COCc2ccc(Cl)cc2)C(O)C(OCc2ccc3ccccc3c2)C1NC(=O)CN` (stereo not drawn) [compound 306], on Human δ-opioid (DOP), the “A1: inhibition of radioligand binding, human δ-opioid (DOP)” value (shortened to “A1: inhibition … human δ-opioid (DOP)”) is reported as “− (“−” indicates less than 50% inhibition at 10 μM)”. Besides, the “A2: inhibition of radioligand binding, human κ-opioid (KOP)” value (shortened to “A2: inhibition of radioligand binding”) at Human κ-Opioid (KOP) is “− (“−” indicates less than 50% inhibition at 10 μM)”. For the same compound, the “A3: inhibition of radioligand binding, human melanocortin (MC3)” value (shortened to “A3: inhibition of radioligand binding”) on Human Melanocortin (MC3) is “− (“−” indicates less than 50% inhibition at 10 μM)”. For the same compound, the “A4: inhibition of radioligand binding, human melanocortin (MC4)” value (shortened to “A4: inhibition of radioligand binding”) on Human Melanocortin (MC4) is “− (“−” indicates less than 50% inhibition at 10 μM)”. In addition, the “A5: inhibition of radioligand binding, human melanocortin (MC5)” value (shortened to “A5: inhibition of radioligand binding”) on Human melanocortin (MC5) is given as “− (“−” indicates less than 50% inhibition at 10 μM)”. Besides, the “A6: inhibition of radioligand binding, human melanin-concentrating hormone (MCH1)” value (shortened to “A6: inhibition of radioligand binding”) in [1] is “− (“−” indicates less than 50% inhibition at 10 μM)”. Moreover, the “A7: inhibition of radioligand binding, human μ-opioid (MOP)” value (shortened to “A7: inhibition of radioligand binding”) on Human μ-opioid (MOP) was “− (“−” indicates less than 50% inhibition at 10 μM)”. At Human neurokinin (NK1), the “A8: inhibition of radioligand binding, human neurokinin (NK1)” value (shortened to “A8: inhibition of radioligand binding”) was “+ (“+” indicates greater than 50% inhibition at 10 μM)”. Moreover, the “A9: inhibition of radioligand binding, human neuropeptide Y (NPY-Y1)” value (shortened to “A9: inhibition of radioligand binding”) in test [2] is given as “− (“−” indicates less than 50% inhibition at 10 μM)”. For the same compound, at Human opioid (ORL1), the “A10: inhibition of radioligand binding, human opioid (ORL1)” value (“A10: inhibition of radioligand binding” for short) is on record as “− (“−” indicates less than 50% inhibition at 10 μM)”. For the same compound, at Mouse urotensin (mUR2), the “A11: inhibition of radioligand binding, mouse urotensin (mUR2)” value (“A11: inhibition of radioligand binding” for short) is listed as “− (“−” indicates less than 50% inhibition at 10 μM)”.
Regarding `CSC1OC(COCc2ccc(Cl)cc2)C(O)C(OCc2ccc3ccccc3c2)C1NC(=O)CNC(=N)N` (stereo not drawn) [compound 307], the “A1: inhibition … human δ-opioid (DOP)” value at Human δ-opioid (DOP) was “− (“−” indicates less than 50% inhibition at 10 μM)”. Moreover, the “A2: inhibition of radioligand binding” value on Human κ-Opioid (KOP) is on record as “− (“−” indicates less than 50% inhibition at 10 μM)”. The “A3: inhibition of radioligand binding” value on Human Melanocortin (MC3) is given as “+ (“+” indicates greater than 50% inhibition at 10 μM)”. For the same compound, the “A4: inhibition of radioligand binding” value at Human Melanocortin (MC4) is on record as “+ (“+” indicates greater than 50% inhibition at 10 μM)”. For the same compound, the “A5: inhibition of radioligand binding” value on Human melanocortin (MC5) is listed as “+ (“+” indicates greater than 50% inhibition at 10 μM)”. The “A6: inhibition of radioligand binding” value in test [1] is reported as “− (“−” indicates less than 50% inhibition at 10 μM)”. Also, the “A7: inhibition of radioligand binding” value on Human μ-opioid (MOP) is recorded as “− (“−” indicates less than 50% inhibition at 10 μM)”. Also, on Human neurokinin (NK1), the “A8: inhibition of radioligand binding” value is listed as “+ (“+” indicates greater than 50% inhibition at 10 μM)”. Also, the “A9: inhibition of radioligand binding” value in test [2] was “− (“−” indicates less than 50% inhibition at 10 μM)”. Besides, the “A10: inhibition of radioligand binding” value on Human opioid (ORL1) is listed as “− (“−” indicates less than 50% inhibition at 10 μM)”. Moreover, the “A11: inhibition of radioligand binding” value on Mouse urotensin (mUR2) is “− (“−” indicates less than 50% inhibition at 10 μM)”.
As to `CSC1OC(COCc2ccc(Cl)cc2)C(O)C(OCc2ccc3ccccc3c2)C1NC(=O)CCN` (stereo not drawn) [compound 308], the “A1: inhibition … human δ-opioid (DOP)” value on Human δ-opioid (DOP) is “− (“−” indicates less than 50% inhibition at 10 μM)”. In addition, the “A2: inhibition of radioligand binding” value at Human κ-Opioid (KOP) was “− (“−” indicates less than 50% inhibition at 10 μM)”. Moreover, on Human Melanocortin (MC3), the “A3: inhibition of radioligand binding” value is recorded as “− (“−” indicates less than 50% inhibition at 10 μM)”. For the same compound, the “A4: inhibition of radioligand binding” value at Human Melanocortin (MC4) is “− (“−” indicates less than 50% inhibition at 10 μM)”. In addition, on Human melanocortin (MC5), the “A5: inhibition of radioligand binding” value is listed as “− (“−” indicates less than 50% inhibition at 10 μM)”. In addition, in [1], the “A6: inhibition of radioligand binding” value is on record as “− (“−” indicates less than 50% inhibition at 10 μM)”. In addition, at Human μ-opioid (MOP), the “A7: inhibition of radioligand binding” value is recorded as “− (“−” indicates less than 50% inhibition at 10 μM)”. Further, the “A8: inhibition of radioligand binding” value at Human neurokinin (NK1) is “+ (“+” indicates greater than 50% inhibition at 10 μM)”. The “A9: inhibition of radioligand binding” value in test [2] was “− (“−” indicates less than 50% inhibition at 10 μM)”. For the same compound, the “A10: inhibition of radioligand binding” value at Human opioid (ORL1) is given as “− (“−” indicates less than 50% inhibition at 10 μM)”. Also, the “A11: inhibition of radioligand binding” value at Mouse urotensin (mUR2) is listed as “− (“−” indicates less than 50% inhibition at 10 μM)”.
